Patent US20100056596A1, “RESISTANCE-REPELLENT RETROVIRAL PROTEASE INHIBITORS” (Sequoia Pharmaceuticals, priority 2004, published 2010)
Read-outs that look alike come from different tables or passages of the source.

Columns and labels:
[1] = system: HIV-1 isolates, Mutant 8; assay: In vitro drug sensitivity of HIV-1 laboratory isolates, Mutant 8; assay type: cell-based
Protocol: (§1) In Vitro Drug Sensitivity of HIV-1 Laboratory Isolates to PIs
(§2) The sensitivities of HIV-1 isolates against compounds of the invention were determined as previously described with minor modifications (Shiraska et al., Proc. Natl. Acad. Sci. USA, 92, 2398-2402 (1995)).

[2] = target: HIV-1 protease Mutant 8 (Human immunodeficiency virus type 1, UniProt P04585); assay: Ki against HIV-1 protease Mutant 8; assay type: biochemical
[3] = system: HIV-1 isolates, WT; assay: In vitro drug sensitivity of HIV-1 laboratory isolates, WT; assay type: cell-based
Protocol: as §1, §2

[4] = target: T1, wild type HIV-1 protease (Human immunodeficiency virus type 1 group M subtype B, UniProt P04585); assay: Ki against wild type (WT) HIV-1 protease; assay type: biochemical
T1 construct: over 45 of the 99 amino acids of the HIV protease monomer

[5] = target: HIV-1 protease Mutant 9 (Human immunodeficiency virus type 1, UniProt P04585); assay: Ki against HIV-1 protease Mutant 9; assay type: biochemical
[6] = system: HIV-1 isolates, Mutant 9; assay: In vitro drug sensitivity of HIV-1 laboratory isolates, Mutant 9; assay type: cell-based
Protocol: as §1, §2

[7] = Human immunodeficiency virus 1, read-out: IC50 Mutant 8
[8] = Human immunodeficiency virus 1, HIV-1 isolate WT
[9] = Human immunodeficiency virus 1, read-out: IC50 Mutant 9

SMILES | IC50 ([1]; Mutant 8, read-out: IC50 Mutant 8) | Ki ([2]; Mutant 8) | IC50 ([3]; WT) | Ki ([4]; WT) | Ki ([5]; Mutant 9) | IC50 ([6]; Mutant 9, read-out: IC50 Mutant 9) | IC50 [1, 7] | Ki ([2]; HIV-1 protease Mutant 8) | IC50 [3, 8] | Ki ([4]; wild type HIV-1 protease) | Ki ([5]; HIV-1 protease Mutant 9) | IC50 [6, 9]
CCOC(=O)N(CCOC)Cc1coc2ccc(S(=O)(=O)N(CC(C)C)C[C@@H](O)[C@H](Cc3ccccc3)NC(=O)OC3COC4OCCC34)cc12 (stereo partly drawn) [Compound 126] | 60 nM | < 0.3 nM | 4 nM | < 0.1 nM | 0.92 nM | 250 nM |  |  |  |  |  | 
CC(C)CN(CC(O)C(Cc1ccccc1)NC(=O)OC1COC2OCCC12)S(=O)(=O)c1ccc2onc(CN)c2c1 (stereo not drawn) [Compound 203] |  |  |  |  |  |  | 70 nM | < 0.3 nM | 22 nM | < 0.1 nM | 0.71 nM | 120 nM
CC(C)CN(CC(O)C(Cc1ccccc1)NC(=O)OC1COC2OCCC12)S(=O)(=O)c1ccc2onc(CNS(=O)(=O)C(C)C)c2c1 (stereo not drawn) [Compound 204] |  |  |  |  |  |  | 31 nM | < 0.3 nM | 6.5 nM | < 0.1 nM | 0.14 nM | 83 nM
CC(=O)OCc1noc2ccc(S(=O)(=O)N(CC(C)C)CC(O)C(Cc3ccccc3)NC(=O)OC3COC4OCCC34)cc12 (stereo not drawn) [Compound 205] |  |  |  |  |  |  | 23 nM | < 0.3 nM | 10 nM | < 0.1 nM | 0.23 nM | 68 nM
CCOC(=O)C(C)NCc1noc2ccc(S(=O)(=O)N(CC(C)C)CC(O)C(Cc3ccccc3)NC(=O)OC3COC4OCCC34)cc12 (stereo not drawn) [Compound 206] |  |  |  |  |  |  | 30 nM | < 0.3 nM | 5 nM | < 0.1 nM | 0.33 nM | 160 nM
CC(C)CN(CC(O)C(Cc1ccccc1)NC(=O)OC1COC2OCCC12)S(=O)(=O)c1ccc2onc(CNS(C)(=O)=O)c2c1 (stereo not drawn) [Compound 207] |  |  |  |  |  |  | 28 nM | < 0.3 nM | 22 nM | < 0.1 nM | 0.34 nM | 54 nM
CCCC[S+]([O-])Cc1noc2ccc(S(=O)(=O)N(CC(C)C)CC(O)C(Cc3ccccc3)NC(=O)OC3COC4OCCC34)cc12 (stereo not drawn) [Compound 208] |  |  |  |  |  |  | 36 nM | < 0.3 nM | 3.9 nM | < 0.1 nM | < 0.1 nM | 60 nM
CC(C)CN(CC(O)C(Cc1ccccc1)NC(=O)OC1COC2OCCC12)S(=O)(=O)c1ccc2onc(CSC(C)C)c2c1 (stereo not drawn) [Compound 209] |  |  |  |  |  |  | 50 nM | < 0.3 nM | 3.5 nM | < 0.1 nM | 2.3 nM | 210 nM
CC(C)CN(CC(O)C(Cc1ccccc1)NC(=O)OC1COC2OCCC12)S(=O)(=O)c1ccc2onc(CN(C)S(C)(=O)=O)c2c1 (stereo not drawn) [Compound 210] |  |  |  |  |  |  | 51 nM | < 0.3 nM | 3 nM | < 0.1 nM | 1.3 nM | 300 nM
Cc1ccc(S(=O)(=O)N(C)Cc2noc3ccc(S(=O)(=O)N(CC(C)C)CC(O)C(Cc4ccccc4)NC(=O)OC4COC5OCCC45)cc23)cc1 (stereo not drawn) [Compound 211] |  |  |  |  |  |  | 51 nM | < 0.3 nM | 2.1 nM | < 0.1 nM | 1.7 nM | 300 nM
CC(C)CN(CC(O)C(Cc1ccccc1)NC(=O)OC1COC2OCCC12)S(=O)(=O)c1ccc2onc(CNC(=O)OC(C)C)c2c1 (stereo not drawn) [Compound 212] |  |  |  |  |  |  | 30 nM | < 0.3 nM | 5 nM | < 0.1 nM | 0.34 nM | > 400 nM
CC(C)CN(CC(O)C(Cc1ccccc1)NC(=O)OC1COC2OCCC12)S(=O)(=O)c1ccc2onc(CO)c2c1 (stereo not drawn) [Compound 213] |  |  |  |  |  |  | 30 nM | < 0.3 nM | 7 nM | < 0.1 nM | 0.15 nM | 55 nM
CC(=O)NCc1noc2ccc(S(=O)(=O)N(CC(C)C)CC(O)C(Cc3ccccc3)NC(=O)OC3COC4OCCC34)cc12 (stereo not drawn) [Compound 214] |  |  |  |  |  |  | 28 nM | < 0.3 nM | 42 nM | < 0.1 nM | < 0.1 nM | 31 nM
CC(C)CN(CC(O)C(Cc1ccccc1)NC(=O)OC1COC2OCCC12)S(=O)(=O)c1ccc2onc(COC(=O)C(C)C)c2c1 (stereo not drawn) [Compound 215] |  |  |  |  |  |  | 15 nM | < 0.3 nM | 11 nM | < 0.1 nM | 0.75 nM | 55 nM
CC(C)CN(CC(O)C(Cc1ccccc1)NC(=O)OC1COC2OCCC12)S(=O)(=O)c1ccc2onc(Cn3ccnc3)c2c1 (stereo not drawn) [Compound 216] |  |  |  |  |  |  | 32 nM | < 0.3 nM | 20 nM | < 0.1 nM | 1.7 nM | 250 nM
CCOC(=O)NCc1noc2ccc(S(=O)(=O)N(CC(C)C)CC(O)C(Cc3ccccc3)NC(=O)OC3COC4OCCC34)cc12 (stereo not drawn) [Compound 217] |  |  |  |  |  |  | 30 nM | < 0.3 nM | 2.3 nM | < 0.1 nM | < 0.1 nM | 20 nM
